Test results taken from patent publication US20210093679A1, “[…] MICROBES AND USES THEREOF” (priority 2018, published 2021).

System: female Balb/cJ mice
Test: Mouse model of xenobiotic metabolism (irinotecan-induced diarrhea)
Conditions: irinotecan 50 mg/kg IP once daily for 10 days
Protocol: On day one and everyday thereafter for 10 days, female Balb/cJ mice (The Jackson Laboratory, Farmington, Conn.) were administered irinotecan (50 mg/kg) (Selleckchem, Houston, Tex.) via intraperitoneal (IP) injection once daily for the length of the experiment. On day one and every day thereafter for 10 days, mice were also administered streptomycin (5 mg/ml) (Sigma-Aldrich, St. Louis, Mo.) ad libidum via their drinking water in order to kill proteobacteria in the mouse GI tract.
On day two, 0.1 ml of engineered bacteria in PBS at a concentration of 10^10 colony forming units per mL were administered to the mice once via oral gavage.
On days 3, 7, 8, 9, and 10, the presence of the bacteria in the mouse GI tract was confirmed by collecting fecal samples from the mice, and analyzing the fecal samples for the presence of engineered bacteria. The fecal samples were homogenized in PBS, and inoculated onto agar plates containing streptomycin (500 μg/ml). These agar plates inhibited the growth of other bacteria, and only allowed the engineered bacteria to grow. Colonies were quantified and tallied to determine the amount of bacteria that were alive in the mouse GI tract.
Diarrhea indicated whether the xenobiotic metabolism of the irinotecan caused GI toxicity.

SMILES: CCc1c2c(nc3ccc(OC(=O)N4CCC(N5CCCCC5)CC4)cc13)-c1cc3c(c(=O)n1C2)COC(=O)[C@]3(O)CC [Irinotecan, irinotecan]
- Mice with diarrhea/total mice in test group (streptomycin in drinking water, bacteria once via oral gavage on day two, observed days 6 through 10): 9/10
- GI toxicity / diarrhea from irinotecan, in words (with or without engineered bacteria): Nine of the ten mice that did not receive engineered bacteria experienced GI toxicity
